This passage reports melting point, IC50 and Ki results from patent US7297704B2, “Cycloalkyfused indole, benzothiophene, benzofuran and idene derivatives” (Wyeth, priority 2005, dated 2007).

Series [1] deals with T1, Human 5-HT1A Receptor (Homo sapiens, UniProt P08908).
T1 construct: expressed in transfected cells; host or cells: CHO cells
T1 sequence (P08908 1-422): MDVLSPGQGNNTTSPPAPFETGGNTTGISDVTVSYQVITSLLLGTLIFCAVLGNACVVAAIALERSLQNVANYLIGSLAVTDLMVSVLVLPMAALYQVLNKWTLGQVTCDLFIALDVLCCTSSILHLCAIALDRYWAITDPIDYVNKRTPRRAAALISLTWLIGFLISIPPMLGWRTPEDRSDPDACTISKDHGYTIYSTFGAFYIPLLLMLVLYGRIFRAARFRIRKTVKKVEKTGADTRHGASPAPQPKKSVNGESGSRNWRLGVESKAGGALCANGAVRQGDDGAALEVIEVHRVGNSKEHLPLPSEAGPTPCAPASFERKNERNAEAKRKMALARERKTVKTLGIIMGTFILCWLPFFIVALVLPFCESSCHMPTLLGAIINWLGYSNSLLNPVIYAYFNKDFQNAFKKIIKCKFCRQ
Kind of series: cAMP RIA in human 5-HT1A receptor cell line. Format: cell-based. Conditions: superscript b; reversal of agonist activity, CHO cells; read-out: c-AMP, (IC50)^b. How it is done:
Stably transfected CHO cells were grown in DMEM containing 10% heat inactivated FBS and non-essential amino acids. The cells were plated at a density of 10^6 cells per well in a 96 well plate and incubated for 2 days in a CO2 incubator. On the second day, the media was replaced with 0.1 ml Krebs and incubated 15 minutes at 37° C. The media was then replaced with Krebs buffer containing 500 uM IBMX and incubated 5 minutes at 37° C. Wells were treated with forskolin (1 uM final conc) followed immediately by test compound (0.1 and 1 uM for initial screen) and incubated for an additional 10 min at 37° C. Reaction was terminated by removal of the media and addition of 0.5 ml ice cold assay buffer (supplied in RIA kit). Plates are stored at −20° C. prior to assessment of cAMP formation by RIA. Compounds shown to have no agonist activities were further analyzed for ability to reverse agonist activity. In separate experiments, 6 concentrations of antagonist were preincubated for 20 min prior to the addition of agonist and forskolin. Cells were harvested as described. The cAMP kit is supplied by Amersham and the RIA is performed as per kit instructions. In the initial screen, percent inhibition of forskolin stimulated cAMP was measured. In the secondary screen, IC50 of reversal of agonist activity was measured. Calculations of IC50 were performed by GraphPad Prism. Serotonin, BMY 7378, Buspirone, and 8-OH-DPAT were used as reference compounds.

A further series has as its target T2, serotonin transporter (Rattus norvegicus, UniProt P31652).
T2 construct: frontal cortical membranes prepared from male S.D. rats; from tissue; host or cells: rat frontal cortex membranes (male Sprague-Dawley)
Briefly: 3H-paroxetine binding to the serotonin transporter, rat frontal cortical membranes. Conditions: values printed in parentheses, 3H-paroxetine 0.1 nM, read-out: rb-5-HH-T, (IC50). The protocol: A protocol similar to that used by Cheetham et al. (Neuropharmacol. 32:737, 1993) was used to determine the affinity of compounds for the serotonin transporter. Briefly, frontal cortical membranes prepared from male S.D. rats were incubated with ^3H-paroxetine (0.1 nM) for 60 min at 25° C. All tubes also contained either vehicle, test compound (one to eight concentrations), or a saturating concentration of fluoxetine (10 μM) to define […]. All reactions are terminated by the addition of ice cold Tris buffer followed by rapid filtration using a Tom Tech filtration device to separate bound from free ^3H-paroxetine. Bound radioactivity was quantitated using a Wallac 1205 Beta Plate® counter. Nonlinear regression analysis was used to determine IC50 values which were converted to Ki values using the method of Cheng and Prusoff (Biochem. Pharmacol. 22: 3099, 1973); […].

Series [2] has as its target T1, Human 5-HT1A Receptor. Kind of series: 8-OH-DPAT binding, human 5-HT1A receptor cell line. Conditions: stably transfected CHO cells, 8-OH-DPAT ligand 1.5 nM; read-out: h5-HT1A Affinity, Ki. The protocol: Stably transfected CHO cells were grown in DMEM containing 10% heat inactivated FBS and non-essential amino acids. Cells were scraped off the plate, transferred to centrifuge tubes, and washed twice by centrifugation (2000 rpm for 10 min., 4° C.) in buffer (50 mM Tris, pH 7.5). The resulting pellets were aliquoted and placed at −80° C. On day of assay, the cells were thawed on ice, and resuspended in buffer. The binding assay was performed in a 96 well microtiter plate in a total volume of […]. Non-specific binding was determined in the presence of […] 5HT; final ligand concentration was 1.5 nM. Following a 30 min. incubation at room temperature, the reaction was terminated by the addition of ice cold buffer and rapid filtration through a GF/B filter presoaked for 30 min. in 0.5% PEI. Compounds were initially tested in a single point assay to determine percent inhibition at […]. Subsequently, Ki values were determined for compounds defined to be active. Percent inhibition Ki was determined by RFComp (Lundon Software), with Serotonin 8-OH-DPAT as the reference compounds.

The melting point is the temperature, or range, at which the solid turns liquid. Broadly, the IC50 is the concentration needed to halve the response being measured. The term Ki denotes the dissociation constant of the complex between target and ligand, obtained from inhibition or displacement.

Counter-ions that a name gives are not always drawn.

T2 sequence (P31652 whole entry): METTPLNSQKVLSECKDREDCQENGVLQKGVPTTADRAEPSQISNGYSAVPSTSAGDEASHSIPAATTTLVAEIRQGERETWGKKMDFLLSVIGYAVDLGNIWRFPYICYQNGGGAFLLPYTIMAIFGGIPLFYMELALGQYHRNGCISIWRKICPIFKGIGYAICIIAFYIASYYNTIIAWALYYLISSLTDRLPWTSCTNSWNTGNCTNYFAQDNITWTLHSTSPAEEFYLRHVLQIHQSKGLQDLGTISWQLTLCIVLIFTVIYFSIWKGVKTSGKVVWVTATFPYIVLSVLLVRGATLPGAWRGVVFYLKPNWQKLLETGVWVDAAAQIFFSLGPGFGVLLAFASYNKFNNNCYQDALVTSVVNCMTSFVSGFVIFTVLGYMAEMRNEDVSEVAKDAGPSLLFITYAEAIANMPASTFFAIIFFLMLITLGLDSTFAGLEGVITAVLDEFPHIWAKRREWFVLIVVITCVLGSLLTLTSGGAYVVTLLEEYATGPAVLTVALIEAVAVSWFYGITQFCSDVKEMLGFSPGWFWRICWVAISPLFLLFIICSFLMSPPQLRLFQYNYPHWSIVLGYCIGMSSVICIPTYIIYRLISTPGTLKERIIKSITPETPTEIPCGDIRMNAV

`Cc1ccc2c3c(ccc2n1)OCC(CN(CC1CCc2c(c4cc(F)ccc4n2C)C1)C(C)C)O3` (as salt: hydrochloride) (hydrate or solvate) [Example 65, N-[(6-Fluoro-9-methyl-2,3,4,9-tetrahydro-1H-carbazol-3-yl)methyl]-N-([(2S)-8-methyl-2,3-dihydro[1,4]dioxino[2,3-f]quinolin-2-yl]methylpropan-2-aminemonohydrochloride monohydrate] returned a melting point of 201 to 222 °C.
Still for that read-out and setting: to `Cc1ccc2c3c(ccc2n1)OC[C@H](CNC[C@@H]1CCc2[nH]c4ccc(F)cc4c2C1)O3` (as salt: hydrochloride) [Example 5, N-{[(3R)-6-fluoro-2,3,4,9-tetrahydro-1H-carbazol-3-yl]methyl}-N-{[(2S)-8-methyl-2,3-dihydro[1,4]dioxino[2,3-f]quinolin-2-yl]methyl}amine] belongs 229 to 236 °C; to `Cc1ccc2c3c(ccc2n1)OC[C@H](CNC[C@H]1CCc2c(c4cc(F)ccc4n2C)C1)O3` (as salt: hydrochloride) [Example 7], 220 to 226 °C; to `Cc1ccc2c3c(ccc2n1)OC[C@H](CNC[C@@H]1CCc2c(c4cc(F)ccc4n2C)C1)O3` (as salt: hydrochloride) [Example 8, N-{[(3R)-6-fluoro-9-methyl-2,3,4,9-tetrahydro-1H-carbazol-3-yl]methyl}-N-{[(2S)-8-methyl-2,3-dihydro[1,4]dioxino[2,3-f]quinolin-2-yl]methyl}amine], 242 to 260 °C.
Same read-out and setting: with `CCN(CC1CCc2[nH]c3ccc(F)cc3c2C1)C[C@H]1COc2ccc3nc(C)ccc3c2O1.Cl.Cl.O.O` (stereo partly drawn) (hydrate or solvate) [Example 50, N-[(6-Fluoro-2,3,4,9-tetrahydro-1H-carbazol-3-yl)methyl]-N-{[(2S)-8-methyl-2,3-dihydro[1,4]dioxino[2,3-f]quinolin-2-yl]methyl}ethanamine dihydrochloride dihydrate] the figure was 234 to 249 °C.
Same read-out and setting: with `CCCN(CC1CCc2[nH]c3ccc(F)cc3c2C1)C[C@H]1COc2ccc3nc(C)ccc3c2O1.Cl.Cl.O.O` (stereo partly drawn) (hydrate or solvate) [Example 51, N-[(6-Fluoro-2,3,4,9-tetrahydro-1H-carbazol-3-yl)methyl]-N-{[(2S)-8-methyl-2,3-dihydro[1,4]dioxino[2,3-f]quinolin-2-yl]methyl}propan-1-amine dihydrochloride dihydrate] the figure was 187 to 201 °C.
Regarding `Cc1ccc2c3c(ccc2n1)OC[C@H](CN(CC1CC1)CC1CCc2[nH]c4ccc(F)cc4c2C1)O3.Cl.Cl.O.O` (stereo partly drawn) (hydrate or solvate) [Example 52, (Cyclopropylmethyl)[(6-fluoro-2,3,4,9-tetrahydro-1H-carbazol-3-yl)methyl]{[(2S)-8-methyl-2,3-dihydro[1,4]dioxino[2,3-f]quinolin-2-yl]methyl}amine dihydrochloride dihydrate], the melting point is 215 to 230 °C.
The same measure, in the same setting: to `Cc1ccc2c3c(ccc2n1)OC[C@H](CN(CC1CCc2[nH]c4ccc(F)cc4c2C1)C1CCC1)O3.Cl.Cl.O.O` (stereo partly drawn) (hydrate or solvate) [Example 53, N-[(6-Fluoro-2,3,4,9-tetrahydro-1H-carbazol-3-yl)methyl]-N-{[(2S)-8-methyl-2,3-dihydro[1,4]dioxino[2,3-f]quinolin-2-yl]methyl}cyclobutanamine dihydrochloride dihydrate] belongs 220 to 235 °C.
Still for that read-out and setting: to `CCCN(C[C@@H]1CCc2[nH]c3ccc(F)cc3c2C1)C[C@H]1COc2ccc3nc(C)ccc3c2O1.Cl.Cl.O.O` (hydrate or solvate) [Example 54, N-{[(3R)-6-Fluoro-2,3,4,9-tetrahydro-1H-carbazol-3-yl]methyl}-N-{[(2S)-8-methyl-2,3-dihydro[1,4]dioxino[2,3-f]quinolin-2-yl]methyl}propan-1-amine dihydrochloride dihydrate] belongs 225 to 240 °C; to `Cc1ccc2c3c(ccc2n1)OC[C@H](CN(CC1CC1)C[C@@H]1CCc2[nH]c4ccc(F)cc4c2C1)O3.Cl.Cl.O.O` (hydrate or solvate) [Example 55, (Cyclopropylmethyl){[(3R)-6-fluoro-2,3,4,9-tetrahydro-1H-carbazol-3-yl]methyl}{[(2S)-8-methyl-2,3-dihydro[1,4]dioxino[2,3-f]quinolin-2-yl]methyl}amine dihydrochloride dihydrate], 210 to 225 °C.
Consider `Cc1ccc2c3c(ccc2n1)OC[C@H](CN(C[C@@H]1CCc2[nH]c4ccc(F)cc4c2C1)C1CCC1)O3.Cl.Cl.O.O` (hydrate or solvate) [Example 56, N-{[(3R)-6-Fluoro-2,3,4,9-tetrahydro-1H-carbazol-3-yl]methyl}-N-{[(2S)-8-methyl-2,3-dihydro[1,4]dioxino[2,3-f]quinolin-2-yl]methyl}cyclobutanamine dihydrochloride dihydrate], for which the melting point fell in the range of 215 to 230 °C.
Still for that read-out and setting: with `Cc1ccc2c3c(ccc2n1)OC[C@H](CN(C[C@@H]1CCc2[nH]c4ccc(F)cc4c2C1)C(C)C)O3.Cl.O` (hydrate or solvate) [Example 57, N-{[(3R)-6-Fluoro-2,3,4,9-tetrahydro-1H-carbazol-3-yl]methyl}-N-{[(2S)-8-methyl-2,3-dihydro[1,4]dioxino[2,3-f]quinolin-2-yl]methyl}propan-2-amine monohydrochloride monohydrate] the figure was 230 to 243 °C.
On to `Cc1ccc2c3c(ccc2n1)OC[C@H](CNC[C@H]1CCc2[nH]c4ccc(F)cc4c2C1)O3` [Example 3, S,S-(6-Fluoro-2,3,4,9-tetrahydro-1H-carbazol-3-ylmethyl)-(8-methyl-2,3-dihydro-[1,4]dioxino[2,3-f]quinolin-2-ylmethyl)-amine], for which the IC50 came to 79 nM at Human 5-HT1A Receptor [1] and 6.61 nM at serotonin transporter. Also, the Ki at Human 5-HT1A Receptor [2] was 1.26 nM.
The matching figures for `Cc1ccc2c3c(ccc2n1)OC[C@H](CNC[C@@H]1CCc2[nH]c4ccc(F)cc4c2C1)O3` [Example 5, N-{[(3R)-6-fluoro-2,3,4,9-tetrahydro-1H-carbazol-3-yl]methyl}-N-{[(2S)-8-methyl-2,3-dihydro[1,4]dioxino[2,3-f]quinolin-2-yl]methyl}amine]: 144 nM, 2.56 nM and 2.03 nM.
The like results for `Cc1ccc2c3c(ccc2n1)OC[C@H](CNC[C@H]1CCc2c(c4cc(F)ccc4n2C)C1)O3` [Example 7] were, in that order, 78.5 nM, 7.74 nM and 0.34 nM.
The matching figures for `Cc1ccc2c3c(ccc2n1)OC[C@H](CNC[C@@H]1CCc2c(c4cc(F)ccc4n2C)C1)O3` [Example 8, N-{[(3R)-6-fluoro-9-methyl-2,3,4,9-tetrahydro-1H-carbazol-3-yl]methyl}-N-{[(2S)-8-methyl-2,3-dihydro[1,4]dioxino[2,3-f]quinolin-2-yl]methyl}amine]: 39.4 nM, 3.1 nM and 2.5 nM.
